In the NIST ThermoML archive (doi:10.1021/acs.jced.5b00934):

Conditions: Liquid, Vibrating tube method

CCC(C)O (stereo not drawn) [butan-2-ol]
Conditions | mass density [kg/m3]
303.15 K, 20032 kPa | 813.3
303.15 K, 21980 kPa | 814.6
303.15 K, 25089 kPa | 816.7
303.15 K, 27989 kPa | 818.6
303.15 K, 30014 kPa | 819.9
303.15 K, 32951 kPa | 821.7
303.15 K, 33007 kPa | 821.7
303.15 K, 33998 kPa | 822.3
303.15 K, 38048 kPa | 824.8
303.15 K, 40020 kPa | 826
303.15 K, 42004 kPa | 827.1
303.15 K, 44999 kPa | 828.9
303.15 K, 45386 kPa | 829.1
303.15 K, 48182 kPa | 830.7
303.15 K, 50063 kPa | 831.8
303.15 K, 51975 kPa | 832.8
303.16 K, 469 kPa | 798.5
303.16 K, 7034 kPa | 803.7
303.16 K, 9943 kPa | 806
303.16 K, 11919 kPa | 807.5
303.16 K, 15070 kPa | 809.8
303.16 K, 31992 kPa | 821.1
303.16 K, 35073 kPa | 823
303.16 K, 55053 kPa | 834.5
303.16 K, 57971 kPa | 836.1
303.16 K, 59945 kPa | 837.1
303.16 K, 62023 kPa | 838.2
303.16 K, 64910 kPa | 839.7
303.16 K, 66100 kPa | 840.3
308.15 K, 99 kPa | 793.9
308.15 K, 284 kPa | 794.1
308.15 K, 499 kPa | 794.3
308.15 K, 1030 kPa | 794.8
308.15 K, 2012 kPa | 795.6
308.15 K, 3016 kPa | 796.4
308.15 K, 10011 kPa | 802
308.15 K, 17937 kPa | 808
308.15 K, 31948 kPa | 817.5
308.15 K, 32957 kPa | 818.2
308.15 K, 33017 kPa | 818.2
308.15 K, 34003 kPa | 818.8
308.15 K, 38001 kPa | 821.3
308.15 K, 45022 kPa | 825.5
308.15 K, 50010 kPa | 828.4
308.15 K, 52016 kPa | 829.5
308.15 K, 54994 kPa | 831.2
308.15 K, 58005 kPa | 832.8
308.15 K, 60029 kPa | 833.9
308.16 K, 919 kPa | 794.6
308.16 K, 5009 kPa | 798.1
308.16 K, 7020 kPa | 799.7
308.16 K, 9036 kPa | 801.3
308.16 K, 11963 kPa | 803.6
308.16 K, 15014 kPa | 805.8
308.16 K, 19942 kPa | 809.4
308.16 K, 22125 kPa | 810.9
308.16 K, 25007 kPa | 813
308.16 K, 28001 kPa | 815
308.16 K, 30046 kPa | 816.3
308.16 K, 35061 kPa | 819.4
308.16 K, 40051 kPa | 822.5
308.16 K, 41974 kPa | 823.7
308.16 K, 47997 kPa | 827.2
308.16 K, 61986 kPa | 835
308.16 K, 64977 kPa | 836.6
308.16 K, 66129 kPa | 837.2
313.15 K, 97 kPa | 789.4
313.15 K, 331 kPa | 789.6
313.15 K, 521 kPa | 789.8
313.15 K, 925 kPa | 790.2
313.15 K, 1936 kPa | 791
313.15 K, 2964 kPa | 791.9
313.15 K, 10109 kPa | 797.8
313.15 K, 12051 kPa | 799.4
313.15 K, 22039 kPa | 806.9
313.15 K, 24988 kPa | 809
313.15 K, 27962 kPa | 811
313.15 K, 30012 kPa | 812.4
313.15 K, 32043 kPa | 813.7
313.15 K, 33039 kPa | 814.4
313.15 K, 33084 kPa | 814.4
313.15 K, 37907 kPa | 817.5
313.15 K, 42039 kPa | 820
313.15 K, 50005 kPa | 824.8
313.15 K, 58031 kPa | 829.3
313.16 K, 1053 kPa | 790.3
313.16 K, 5002 kPa | 793.7
313.16 K, 6986 kPa | 795.3
313.16 K, 8976 kPa | 797
313.16 K, 14996 kPa | 801.7
313.16 K, 17980 kPa | 803.9
313.16 K, 20012 kPa | 805.4
313.16 K, 34096 kPa | 815
313.16 K, 35045 kPa | 815.6
313.16 K, 40135 kPa | 818.9
313.16 K, 45006 kPa | 821.8
313.16 K, 48081 kPa | 823.7
313.16 K, 52025 kPa | 826
313.16 K, 55030 kPa | 827.7
313.16 K, 60001 kPa | 830.4
313.16 K, 62068 kPa | 831.6
313.16 K, 65053 kPa | 833.2
313.16 K, 66058 kPa | 833.7
318.15 K, 102 kPa | 784.8
318.15 K, 288 kPa | 785
318.15 K, 909 kPa | 785.5
318.15 K, 9293 kPa | 792.8
318.15 K, 12039 kPa | 795.1
318.15 K, 14977 kPa | 797.4
318.15 K, 17998 kPa | 799.8
318.15 K, 20024 kPa | 801.3
318.15 K, 24907 kPa | 804.9
318.15 K, 27973 kPa | 807.1
318.15 K, 30001 kPa | 808.5
318.15 K, 32873 kPa | 810.4
318.15 K, 33033 kPa | 810.4
318.15 K, 45210 kPa | 818.3
318.15 K, 48072 kPa | 820.1
318.15 K, 49996 kPa | 821.2
318.15 K, 57926 kPa | 825.8
318.16 K, 476 kPa | 785.1
318.16 K, 1004 kPa | 785.6
318.16 K, 1987 kPa | 786.5
318.16 K, 3033 kPa | 787.4
318.16 K, 5011 kPa | 789.2
318.16 K, 6978 kPa | 790.9
318.16 K, 10006 kPa | 793.4
318.16 K, 22040 kPa | 802.8
318.16 K, 32063 kPa | 809.9
318.16 K, 33988 kPa | 811.1
318.16 K, 34997 kPa | 811.8
318.16 K, 38029 kPa | 813.7
318.16 K, 39963 kPa | 815
318.16 K, 42133 kPa | 816.4
318.16 K, 51984 kPa | 822.4
318.16 K, 54987 kPa | 824.1
318.16 K, 60004 kPa | 827
318.16 K, 62005 kPa | 828.1
318.16 K, 65012 kPa | 829.7
318.16 K, 66081 kPa | 830.3
323.15 K, 539 kPa | 780.5
323.15 K, 1027 kPa | 781
323.15 K, 5007 kPa | 784.7
323.15 K, 7056 kPa | 786.5
323.15 K, 9085 kPa | 788.3
323.15 K, 10245 kPa | 789.3
323.15 K, 12118 kPa | 790.8
323.15 K, 15027 kPa | 793.2
323.15 K, 18033 kPa | 795.6
323.15 K, 20133 kPa | 797.2
323.15 K, 25015 kPa | 800.9
323.15 K, 28096 kPa | 803.1
323.15 K, 33113 kPa | 806.7
323.15 K, 37980 kPa | 809.9
323.15 K, 40058 kPa | 811.2
323.15 K, 42026 kPa | 812.5
323.15 K, 50034 kPa | 817.5
323.15 K, 52055 kPa | 818.7
